# How the values were obtained:
# Format in all cases: in vivo
# Galium aparine (GALAP) [1] = assay: Post-emergence test; conditions: 2-4 weeks after treatment
# Description: (§1) To evaluate their herbicidal activity, compounds according to the invention are tested using a representative range of plants:
# (§2) These acetone solutions are diluted with water and the resulting formulations applied at dosage levels equivalent of about 0.025 to 0.4 kg per hectare of test compound per pot. After spraying the plants are placed on greenhouse benches and are cared for in the usual manner, commensurate with conventional greenhouse practices. From 2 to 4 weeks after treatment, the seedling plants are examined and rated according to the rating system provided above.
# [2] = tested on: Echinochloa crus-galli (ECHCG); assay: Post-emergence test; conditions: 2-4 weeks after treatment
# Description: as §1, §2
# [3] = tested on: Lolium multiflorum (LOLMU); assay: Post-emergence test; conditions: 2-4 weeks after treatment
# Description: as §1, §2
# Stellaria media (STEME) = assay: Post-emergence test; conditions: 2-4 weeks after treatment
# Description: as §1, §2
# [4] = tested on: Cassia obtusifolia (CASOB); assay: Post-emergence test; conditions: 2-4 weeks after treatment
# Description: as §1, §2
# [5] = tested on: Abutilon theophrasti (ABUTH); assay: Post-emergence test; conditions: 2-4 weeks after treatment
# Description: as §1, §2
# [6] = tested on: Matricaria inodora (MATIN); assay: Post-emergence test; conditions: 2-4 weeks after treatment
# Description: as §1, §2
# Setaria viridis (SETVI) = assay: Post-emergence test; conditions: 2-4 weeks after treatment
# Description: as §1, §2
# [7] = tested on: Ambrosia artemisifolia (AMBEL); assay: Post-emergence test; conditions: 2-4 weeks after treatment
# Description: as §1, §2
# Lamium purpureum (LAMPU) = assay: Post-emergence test; conditions: 2-4 weeks after treatment
# Description: as §1, §2
# [8] = tested on: Digitaria sanguinalis (DIGSA); assay: Post-emergence test; conditions: 2-4 weeks after treatment
# Description: as §1, §2
# [9] = tested on: Alopecurus myosuroides (ALOMY); assay: Post-emergence test; conditions: 2-4 weeks after treatment
# Description: as §1, §2
# [10] = tested on: Ipomoea hederacea (IPOHE); assay: Post-emergence test; conditions: 2-4 weeks after treatment
# Description: as §1, §2
# Galium aparine (GALAP) [11] = assay: Pre-emergence test; conditions: 3 weeks after treatment
# Description: (§3) To evaluate their herbicidal activity, compounds according to the invention are tested using a representative range of plants: […] The pre-emergence tests involve spraying a liquid formulation of the compound onto the soil in which the seeds of the plant species mentioned above has recently been sown. The soil used in the tests is a prepared horticultural loam. […] In these tests untreated sown soil are used as controls.
# [12] = tested on: Echinochloa crus-galli (ECHCG); assay: Pre-emergence test; conditions: 3 weeks after treatment
# Description: as §3
# [13] = tested on: Lolium multiflorum (LOLMU); assay: Pre-emergence test; conditions: 3 weeks after treatment
# Description: as §3
compound,measurement,setting,value
Cn1nc(C(F)(F)F)cc1Oc1cccc(-n2ccc(C(F)(F)F)n2)n1 [Comparison],Rating GALAP (post-emergence application),Galium aparine (GALAP) [1]; 0.025 kg/ha,4 (4 - Injury)
same,Rating GALAP (post-emergence application),Galium aparine (GALAP) [1]; 0.100 kg/ha,6 (6 - Herbicidal effect)
same,Rating GALAP (post-emergence application),Galium aparine (GALAP) [1]; 0.400 kg/ha,8 (8 - Approaching complete kill)
same,Rating ECHCG (post-emergence application),[2]; 0.025 kg/ha,4 (4 - Injury)
same,Rating ECHCG (post-emergence application),[2]; 0.100 kg/ha,7 (7 - Good herbicidal effect)
same,Rating ECHCG (post-emergence application),[2]; 0.400 kg/ha,9 (9 - Complete kill)
same,Rating LOLMU (post-emergence application),[3]; 0.025 kg/ha,4 (4 - Injury)
same,Rating LOLMU (post-emergence application),[3]; 0.100 kg/ha,7 (7 - Good herbicidal effect)
same,Rating LOLMU (post-emergence application),[3]; 0.400 kg/ha,9 (9 - Complete kill)
same,Rating STEME (post-emergence application),Stellaria media (STEME); 0.025 kg/ha,7 (7 - Good herbicidal effect)
same,Rating STEME (post-emergence application),Stellaria media (STEME); 0.100 kg/ha,9 (9 - Complete kill)
same,Rating STEME (post-emergence application),Stellaria media (STEME); 0.400 kg/ha,9 (9 - Complete kill)
same,Rating CASOB (post-emergence application),[4]; 0.025 kg/ha,9 (9 - Complete kill)
same,Rating CASOB (post-emergence application),[4]; 0.100 kg/ha,9 (9 - Complete kill)
same,Rating CASOB (post-emergence application),[4]; 0.400 kg/ha,9 (9 - Complete kill)
same,Rating ABUTH (post-emergence application),[5]; 0.025 kg/ha,3 (3 - Moderate effect)
same,Rating ABUTH (post-emergence application),[5]; 0.100 kg/ha,6 (6 - Herbicidal effect)
same,Rating ABUTH (post-emergence application),[5]; 0.400 kg/ha,8 (8 - Approaching complete kill)
same,Rating MATIN (post-emergence application),[6]; 0.025 kg/ha,4 (4 - Injury)
same,Rating MATIN (post-emergence application),[6]; 0.100 kg/ha,6 (6 - Herbicidal effect)
same,Rating MATIN (post-emergence application),[6]; 0.400 kg/ha,8 (8 - Approaching complete kill)
same,Rating SETVI (post-emergence application),Setaria viridis (SETVI); 0.025 kg/ha,3 (3 - Moderate effect)
same,Rating SETVI (post-emergence application),Setaria viridis (SETVI); 0.100 kg/ha,6 (6 - Herbicidal effect)
same,Rating SETVI (post-emergence application),Setaria viridis (SETVI); 0.400 kg/ha,8 (8 - Approaching complete kill)
same,Rating AMBEL (post-emergence application),[7]; 0.025 kg/ha,2 (2 - Slight effect)
same,Rating AMBEL (post-emergence application),[7]; 0.100 kg/ha,6 (6 - Herbicidal effect)
same,Rating AMBEL (post-emergence application),[7]; 0.400 kg/ha,8 (8 - Approaching complete kill)
same,Rating LAMPU (post-emergence application),Lamium purpureum (LAMPU); 0.025 kg/ha,7 (7 - Good herbicidal effect)
same,Rating LAMPU (post-emergence application),Lamium purpureum (LAMPU); 0.100 kg/ha,9 (9 - Complete kill)
same,Rating LAMPU (post-emergence application),Lamium purpureum (LAMPU); 0.400 kg/ha,9 (9 - Complete kill)
same,Rating DIGSA (post-emergence application),[8]; 0.025 kg/ha,3 (3 - Moderate effect)
same,Rating DIGSA (post-emergence application),[8]; 0.100 kg/ha,6 (6 - Herbicidal effect)
same,Rating DIGSA (post-emergence application),[8]; 0.400 kg/ha,8 (8 - Approaching complete kill)
same,Rating ALOMY (post-emergence application),[9]; 0.025 kg/ha,2 (2 - Slight effect)
same,Rating ALOMY (post-emergence application),[9]; 0.100 kg/ha,4 (4 - Injury)
same,Rating ALOMY (post-emergence application),[9]; 0.400 kg/ha,8 (8 - Approaching complete kill)
same,Rating IPOHE (post-emergence application),[10]; 0.025 kg/ha,5 (5 - Definite injury)
same,Rating IPOHE (post-emergence application),[10]; 0.100 kg/ha,9 (9 - Complete kill)
same,Rating IPOHE (post-emergence application),[10]; 0.400 kg/ha,9 (9 - Complete kill)
same,Assessment rating GALAP (pre-emergence application),Galium aparine (GALAP) [11]; 0.013 kg/ha,0 (0 - No effect)
same,Assessment rating GALAP (pre-emergence application),Galium aparine (GALAP) [11]; 0.025 kg/ha,1 (1 - Trace effect)
same,Assessment rating GALAP (pre-emergence application),Galium aparine (GALAP) [11]; 0.100 kg/ha,2 (2 - Slight effect)
same,Assessment rating GALAP (pre-emergence application),Galium aparine (GALAP) [11]; 0.400 kg/ha,8 (8 - Approaching complete kill)
same,Assessment rating ECHCG (pre-emergence application),[12]; 0.013 kg/ha,0 (0 - No effect)
same,Assessment rating ECHCG (pre-emergence application),[12]; 0.025 kg/ha,2 (2 - Slight effect)
same,Assessment rating ECHCG (pre-emergence application),[12]; 0.100 kg/ha,4 (4 - Injury)
same,Assessment rating ECHCG (pre-emergence application),[12]; 0.400 kg/ha,7 (7 - Good herbicidal effect)
same,Assessment rating LOLMU (pre-emergence application),[13]; 0.013 kg/ha,3 (3 - Moderate effect)
same,Assessment rating LOLMU (pre-emergence application),[13]; 0.025 kg/ha,5 (5 - Definite injury)
same,Assessment rating LOLMU (pre-emergence application),[13]; 0.100 kg/ha,8 (8 - Approaching complete kill)
same,Assessment rating LOLMU (pre-emergence application),[13]; 0.400 kg/ha,8 (8 - Approaching complete kill)
